Test results as given in PubChem BioAssay (NCI).
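Where inhibition never reached the appropriate level, the endpoint shown equals the highest concentration tested. Otherwise, values were interpolated linearly from a five-concentration, 48-hour dose response in 96-well plates. GI50: concentration for 50% inhibition of growth. TGI: total growth inhibition.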

Assays:
Assay in all cases: NCI-60 cell line screen, 48 h
[1] = system: OVCAR-3 ovarian
[2] = system: SF-295 CNS
[3] = system: SN12C renal
[4] = system: UO-31 renal
[5] = system: SF-539 CNS
[6] = system: SK-MEL-2 melanoma
[7] = system: NCI-H522 lung
[8] = system: OVCAR-5 ovarian
[9] = system: DU-145 prostate
[10] = system: NCI/ADR-RES ovarian

SMILES	TGI [1]	TGI [2]	TGI [3]	TGI [4]	TGI [5]	TGI [6]	TGI [7]	TGI [8]	GI50 [5]	GI50 [6]	GI50 [2]	GI50 [7]	GI50 [9]	TGI [9]	GI50 [3]	GI50 [10]	TGI [10]	GI50 [8]	GI50 [4]	GI50 [1]
Cc1cc(C)c2c(c1)Nc1ccccc1P2c1ccccc1 (stereo unspecified)	61 µM	56.3 µM	> 100 µM	57.8 µM																
O=c1c(Sc2c(O)c3ccccc3c3ccccc3c2=O)c(O)c2ccccc2c2ccccc12	> 100 µM	> 100 µM	> 100 µM	> 100 µM	> 100 µM	68.5 µM	47.8 µM	> 100 µM												
N#Cc1cccc(C(=O)Nc2cccc(NC(=O)c3cccc(C#N)c3)c2)c1		> 100 µM	> 100 µM	> 100 µM	> 100 µM	> 100 µM	> 100 µM	> 100 µM	57.7 µM	> 100 µM	> 100 µM	> 100 µM	66.6 µM	> 100 µM	34.1 µM	95.7 µM	> 100 µM	> 100 µM	> 100 µM	
C=C1CC2(C[C@@H](c3ccccc3)O[C@@H](c3ccccc3)C2)OC1=O (stereo partly specified)	6.07 µM	26.8 µM	9.62 µM	18.4 µM	4.94 µM	11.3 µM	3.02 µM	26.9 µM						21.4 µM			15.4 µM			
Cc1nc2cnc3cc(F)c(-c4ccc(Oc5ncccn5)cc4Cl)cc3c2n1[C@H]1CCN(C(=O)CO)C[C@@H]1F	> 76.3 µM	> 57.1 µM	36.8 µM	24.4 µM	16.9 µM	0.536 µM	32.7 µM	> 40.1 µM	3.03 µM	0.059 µM	8.41 µM	7.17 µM	4.36 µM	> 100 µM	1.2 µM	8.38 µM	49 µM	0.279 µM	1.78 µM	20 µM
CS(=O)(=O)OCCn1cnc2nc(NC(=O)c3ccccc3)[nH]c(=O)c21	> 100 µM	> 100 µM	> 100 µM	> 100 µM	> 100 µM	> 100 µM	> 100 µM	> 100 µM												
O=C1OC(CC(=O)c2ccc(Cl)cc2Cl)C(Cl)=C1Cl (stereo unspecified)	> 100 µM	> 100 µM	> 31.6 µM	> 56.7 µM	44.9 µM	41.7 µM	34.7 µM	> 62.8 µM												
Cc1ccc(NC(=O)c2cc3ccccc3c(N=Nc3ccccc3O)c2O)c(C)c1	3.98 µM	10.5 µM				14.9 µM	2.61 µM	19.5 µM									5.71 µM			
CCOC(=O)C1=C(NNC(=O)Cc2ccccc2)CSC1=Nc1ccccc1	> 100 µM	> 100 µM	> 100 µM	> 100 µM	> 100 µM	> 100 µM	> 100 µM	> 100 µM												
CCCCCCCCC(=O)N(C)C1C2CN3CCC(O2)C13 (stereo unspecified)	> 100 µM	> 100 µM	> 100 µM	> 100 µM	> 100 µM	> 100 µM	> 100 µM	> 100 µM												
COc1ccc(-c2cc(-c3ccccc3)nc(N3CCN(CCNc4ccnc5cc(Cl)ccc45)CC3)n2)cc1	3.69 µM	33 µM	3.34 µM	3.37 µM	3.06 µM	20.8 µM		4.99 µM	1.53 µM	6.78 µM	16.6 µM		1.88 µM	3.94 µM	1.64 µM	1.72 µM	4.04 µM	1.92 µM	1.4 µM	1.89 µM
COC1(O)C(=O)c2ccccc2OC1(OC)c1ccccc1 (stereo unspecified)	> 100 µM	> 100 µM	> 100 µM		> 100 µM	> 100 µM	> 100 µM	> 100 µM						> 100 µM			> 100 µM			
COc1ccn2c(C(C)=O)cc(C(=O)c3ccc4c(c3)Sc3ccccc3N4)c2c1	0.206 µM		> 100 µM	> 100 µM	0.206 µM	> 100 µM	0.248 µM	> 100 µM	0.0654 µM			0.0321 µM	0.122 µM	> 100 µM	0.33 µM	0.0547 µM		0.229 µM	0.476 µM	0.0801 µM
O=c1[nH]nc2ccccc2c1Cl	6.21 µM	46.9 µM	34.2 µM	28.2 µM	29.9 µM	33.6 µM		33.9 µM												
C=C1C(=O)OC2C1CC[C@H](C)C13OC(=O)CC1[C@@]23C (stereo partly specified)	> 100 µM	> 100 µM	> 100 µM	> 100 µM	> 100 µM	> 100 µM	> 100 µM	> 100 µM												
Nc1c(Br)c(=O)[nH]c(=O)n1COCCO	> 100 µM	> 100 µM	> 100 µM	> 100 µM	> 100 µM		> 100 µM	> 100 µM												
CCN(CCNc1ccc(C)c2sc3cc(Cl)ccc3c(=O)c12)CC(C)O (stereo unspecified)	14.3 µM	3.72 µM	10.5 µM		2.95 µM				1.59 µM		1.67 µM		3.87 µM	18.2 µM	2.76 µM	2.07 µM	4.08 µM			3.62 µM
N#Cc1c(N)nc(N2CCOCC2)c(C#N)c1-c1ccc(Cl)cc1	> 100 µM	> 100 µM	> 100 µM		> 100 µM	56.2 µM		> 100 µM	49 µM	18.1 µM	44.8 µM		75 µM	> 100 µM	50.9 µM	23.6 µM	76.2 µM	80.4 µM		27.8 µM
